The values that follow come from patent US20120276212A1, “COMPOSITION COMPRISING PLANT AND/OR FISH OILS AND NON-OXIDIZABLE FATTY ACID ENTITIES” (LIFE SCIENCE NUTRITION AS, priority 2004, published 2012).

Series [1] can be described thus: degradation time in vivo of ω-oxidation blocked analogue. The text has this:
ω-oxidation is believed to be the main pathway for degradation of the fatty acid analogues as described with a block in the X position. Experiments were thus performed where R′ was changed to block ω-oxidation, by introducing a triple bond at the methyl end of the fatty acid analogue. […] This is important for the use of the fatty acid analogues in pharmaceutical preparation, as it may potentiate the effects of the β-oxidizable fatty acid analogues by further slowing down their breakdown.

For series [2], the system named is mitochondrial β-oxidation in the liver. Description: activity of mitochondrial β-oxidation in the liver of fatty acid analogues. The following applies: in vivo. The text has this:
Although all fatty acid anagoges with an odd positioning of the β-oxidation blocker X away from the carboxylic end block β-oxidation, the extent of their biological effect may be variable. This is due to the difference in biological degradation time of the various compounds. The inventors have done experiments to show the effect of moving X further from the carboxylic fatty acid end. In these experiments the activity (in nmol/min/mg/protein) of mitochondrial β-oxidation in the liver of fatty acid analogues was measured with sulphur in the 3, 5 and 7 positions relative to the carboxyl end. The activities were 0.81 for sulphur in the 3rd position, 0.61 for sulphur in the 5th position, 0.58 for sulphur in the 7th position, and 0.47 for palmitic acid, the non β-oxidation blocking control. […] However, as the decline is great for going from the 3rd to 5th position, but small going from the 5th to 7th position, it is reasonable to assume that this decline will continue to be less as one moves out the chain, and thus that it will be very far out indeed before no effect (compared to the control) is seen at all.

Turning to `CC#CCCCCCCCCCCCSCC` [3-thia-15-heptadecyn], the “degradation time in vivo” value in series [1] is on record as “substantially increased degradation time”.

In the case of `CCCCCCCCCCCCCCCC(=O)O` [palmitic acid], the “activity of mitochondrial β-oxidation in the liver” value in series [2] worked out at 0.47 nmol/min/mg/protein.
